This note sets out measurements from patent publication US5001235A, “Antibiotic beta-lactams containing a pyridone carboxylic acid or acid derivative” (The Upjohn Company, priority 1989, dated 1991).

Values after ≈ are worked out from the molar mass of the structure shown. Where a name gives a salt, the structure may show the parent alone. Read-outs that look alike come from different tables or passages of the source. Where only a bound is given, the exact number is not on record here.

Assay in all cases: MIC by agar dilution (Mueller Hinton Agar)
Common to all, as to type: cell-based

In one assay the test system is Staphylococcus aureus. To be noted: MHA, 35° C., 20 hours; for MIC: Staphylococcus aureus, Culture Number 9218, read-out: Minimum Inhibitory Concentration. How it is done: (§1) The compounds of this invention and their respective pharmacologically acceptable salts have antibiotic activity against a variety of gram-negative bacteria including Escherichia coli, Klebsiella pneumoniae, and Pseudomonas aeruginosa. The compounds are useful for treating bacterial infections in animals, including and most preferably humans. Compounds of the invention are tested for in vitro antimicrobial activity using standard testing procedures such as the determination of minimum inhibitory concentration (MIC) by agar dilution as described in "Methods for Dilution Antimicrobial Susceptibility Tests for Bacteria That Grow Aerobically" (M7-A) Published December 1985 by the National Committee for Clinical Laboratory Standards, 771 East Lancaster Avenue, Villanova, Pa. 19084. Briefly, MIC values are determined in unsupplemented Mueller Hinton Agar (MHA). The compounds tested are diluted serially into molten MHA at 47° C. The agar is poured into petri dishes and allowed to harden. The various bacteria used for testing are grown overnight on MHA at 35° C. and transferred to Tryptiease Soy Broth (TSB) until a turbidity of 0.5 McFarland standard is obtained. The bacteria are diluted one to 20 in TSB and inoculated on the plates (1 μl using a Steers replicator). […] The MIC test results of two typical compounds of this invention, Compound 14 which is (3S)-3-[2-(2-Amino-4-thiazolyl)-Z-(2)-carboxyisopropyloxyimino)acetamido]- 1-[(3-carboxy-4-pyridon-6-yl)-carbonylamino-1-(2-imidazolidone-3-yl)sulfonylaminocarbonyl]-2-azetidinone trisodium salt and Compound 17 which is (3S)-3-[2-(2-Amino-4-thiazolyl)-Z-(2)-(carboxyisopropyloxyamino)acetamido]-1-[(3-hydroxyaminocarbonyl-4-pyridon-6-yl)carbonylamino-1-(2-imidazolidone-3-yl)sulfonylaminocarbonyl]-2-azetidinone, are given in Table I.

Another assay relates to Proteus vulgaris. The conditions noted are these: Culture Number 9679, MHA, 35° C., 20 hours, read-out: Minimum Inhibitory Concentration. How it is done: as §1
For a further assay, the system named is Pseudomonas aeruginosa. How it is done:
as §1

The subject of another assay is Citrobacter freundli. To be noted: Culture Number 3507, MHA, 35° C., 20 hours, read-out: Minimum Inhibitory Concentration. How it is done:
as §1

The test system of a further assay is Streptococcus pyogenes. To be noted: Culture Number 152, MHA, 35° C., 20 hours, read-out: Minimum Inhibitory Concentration. How it is done: as §1
A further assay deals with Streptococcus pneumoniae. The conditions noted are these: Culture Number 41, MHA, 35° C., 20 hours, read-out: Minimum Inhibitory Concentration. How it is done: as §1
The subject of a further assay is Escherichia coli. To be noted: 20 h, 35° C., read-out: Minimum Inhibitory Concentration. How it is done: as §1
For a further assay, the system named is Serratia marcescens. The conditions noted are these: Culture Number 6888, MHA, 35° C., 20 hours, read-out: Minimum Inhibitory Concentration. How it is done: as §1
Another assay relates to Streptococcus faecalis. The conditions noted are these: Enterococcus faecalis; Culture Number 694; MHA, 35° C., 20 hours; read-out: Minimum Inhibitory Concentration. How it is done:
as §1

In a further assay the test system is Klebsiella pneumoniae. To be noted: Culture Number 58, MHA, 35° C., 20 hours, read-out: Minimum Inhibitory Concentration. How it is done: as §1
The next assay concerns Klebsiella oxytoca. The conditions noted are these: 20 h, 35° C., read-out: Minimum Inhibitory Concentration. How it is done: as §1
A further assay deals with Enterobacter cloacae. To be noted: 20 h, 35° C., read-out: Minimum Inhibitory Concentration. How it is done: as §1
Where [1] appears, read: 20 h, Culture Number 231, MHA, 35° C., 20 hours, read-out: Minimum Inhibitory Concentration.
[2] abbreviates: 20 h, Culture Number 9191, MHA, 35° C., 20 hours, read-out: Minimum Inhibitory Concentration.

On to `CC(C)(O/N=C(\C(=O)N[C@H]1CN(C(=O)NS(=O)(=O)N2CCN(NC(=O)c3cc(=O)c(C(=O)NO)c[nH]3)C2=O)C1=O)c1csc(N)n1)C(=O)O` [Compound 17, (3S)-3-[2-(2-Amino-4-thiazolyl)-Z-(2)-(carboxyisopropyloxyamino)acetamido]-1-[(3-hydroxyaminocarbonyl-4-pyridon-6-yl)carbonylamino-1-(2-imidazolidone-3-yl)sulfonylaminocarbonyl]-2-azetidinone], for which the “Minimum Inhibitory Concentration” value in the assay on Staphylococcus aureus (Culture Number 3665) and in the assay with Staphylococcus aureus (Culture Number 6685) was > 128 µg/mL throughout. Besides, the MIC with Staphylococcus aureus was > 128 µg/mL; in the assay on Proteus vulgaris it was 0.125 µg/mL (≈ 0.172 µM); in the assay with Pseudomonas aeruginosa (setting [1]), 4 µg/mL (≈ 5.5 µM); in the assay with Pseudomonas aeruginosa (setting [2]), 4 µg/mL (≈ 5.5 µM); in the assay on Citrobacter freundli it was 0.25 µg/mL (≈ 0.344 µM); in the assay on Streptococcus pyogenes, 4 µg/mL (≈ 5.5 µM). The MIC in the assay on Streptococcus pneumoniae is 64 µg/mL (≈ 88 µM); in the assay on Escherichia coli (Culture Number 9379, MHA), 0.5 µg/mL (≈ 0.687 µM); in the assay with Escherichia coli (Culture Number 9380, MHA), 0.5 µg/mL (≈ 0.687 µM); with Escherichia coli (Culture Number 9451, MHA), 0.25 µg/mL (≈ 0.344 µM); with Serratia marcescens, 2 µg/mL (≈ 2.75 µM); with Streptococcus faecalis it was > 128 µg/mL. Besides, the MIC is 0.5 µg/mL (≈ 0.687 µM) in the assay on Klebsiella pneumoniae; 4 µg/mL (≈ 5.5 µM) in the assay with Klebsiella oxytoca (Culture Number 9383, MHA); 0.5 µg/mL (≈ 0.687 µM) in the assay with Klebsiella oxytoca (Culture Number 9384, MHA); 64 µg/mL (≈ 88 µM) in the assay on Enterobacter cloacae (Culture Number 9381, MHA); 2 µg/mL (≈ 2.75 µM) in the assay on Enterobacter cloacae (Culture Number 9382, MHA).
As to `CC(C)(O/N=C(\C(=O)N[C@H]1CN(C(=O)NS(=O)(=O)N2CCN(NC(=O)c3cc(=O)c(C(N)=O)c[nH]3)C2=O)C1=O)c1csc(N)n1)C(=O)O` [Compound 18], the MIC with Pseudomonas aeruginosa (pseudomonas aeruginosa Culture No. 231, given in text for Compound 18, read-out: M/C) was 8 µg/mL (≈ 11.2 µM).
For `CC(C)(O/N=C(\C(=O)N[C@H]1CN(C(=O)NS(=O)(=O)N2CCN(NC(=O)c3cc(=O)c(C(=O)O)c[nH]3)C2=O)C1=O)c1csc(N)n1)C(=O)O` [Compound 14, (3S)-3-[2-(2-Amino-4-thiazolyl)-Z-(2)-carboxyisopropyloxyimino)acetamido]-1-[(3-carboxy-4-pyridon-6-yl)-carbonylamino-1-(2-imidazolidone-3-yl)sulfonylaminocarbonyl]-2-azetidinone trisodium salt], the “Minimum Inhibitory Concentration” value in the assay with Staphylococcus aureus (Culture Number 3665) and with Staphylococcus aureus (Culture Number 6685) was > 128 µg/mL in each case. Moreover, the MIC in the assay with Staphylococcus aureus was > 128 µg/mL; with Proteus vulgaris it was 0.06 µg/mL; in the assay on Pseudomonas aeruginosa (setting [1]), 0.5 µg/mL; in the assay with Pseudomonas aeruginosa (setting [2]), 1 µg/mL; in the assay on Citrobacter freundli, 0.25 µg/mL; with Streptococcus pyogenes, 4 µg/mL. Besides, the MIC in the assay on Streptococcus pneumoniae is 64 µg/mL; in the assay with Escherichia coli (Culture Number 9379, MHA) it was 0.25 µg/mL; with Escherichia coli (Culture Number 9380, MHA), 0.125 µg/mL; in the assay with Escherichia coli (Culture Number 9451, MHA) it was 0.125 µg/mL; in the assay on Serratia marcescens it was 0.5 µg/mL; with Streptococcus faecalis, > 128 µg/mL. Besides, the MIC in the assay on Klebsiella pneumoniae came out at 0.5 µg/mL; with Klebsiella oxytoca (Culture Number 9383, MHA), 4 µg/mL; with Klebsiella oxytoca (Culture Number 9384, MHA), 0.25 µg/mL; in the assay on Enterobacter cloacae (Culture Number 9381, MHA), 64 µg/mL; in the assay with Enterobacter cloacae (Culture Number 9382, MHA), 0.5 µg/mL.
